Laboratory results from patent US20160229835A1, “NOVEL PYRIDYLOXYACETYL TETRAHYDROISOQUINOLINE COMPOUNDS USEFUL AS NAMPT INHIBITORS” (ELI LILLY AND COMPANY, priority 2013, published 2016).
Read-outs that look alike come from different tables or passages of the source.

Legend:
[1] = system: MCF-7 (breast cancer) cells; assay: Cell Viability Assay, MCF-7; type: cell-based; settings: Homo sapiens, MCF7, 72 hours
Experimental: The purpose of this assay is to measure the ability of a compound to reduce viability of different cancer cells dependent on the NAMPT-mediated NAD^+ formation in vitro. HCC1937 (breast cancer) cells are cultured in RPMI-1640 supplemented with 10% FBS. Calu-6 (lung cancer) cells and MCF-7 (breast cancer) cells are cultured in Minimum Essential Medium (MEM) (Gibco11095) supplemented with 1 mM sodium pyruvate (Gibco 11360), 1% Non-Essential Amino Acids Solution (100×; Gibco 11140) and 10% FBS. NCI-H1155 (lung cancer) cells are cultured in Dulbecco's Modified Eagle Medium (DMEM) (Gibco 11965) with 10% FBS. […] Cell viability is analyzed by using an assay kit (CYTOTOX-GLO™ Cytotoxicity Assay kit, Promega) according to the manufacturer's instructions as follows. […] Luminescence is measured using a Wallac Victor3 V 1420 Multilabel Counter (Perkin Elmer), referred to as dead cell luminescence. […] After the plate is incubated at room temperature for 15 minutes, luminescence is measured using the plate reader, referred to as total luminescence. Viable cell luminescence (CPS) is calculated by subtracting the dead cell luminescence from the total luminescence Inhibition of cell viability is calculated based on the equation as follows:
Inhibition (%)=(CPSnegative−CPSsample)/(CPSnegative−CPSpositive)*100 where CPS is the luminescence of viable cells.

[2] = system: A2780 tumor model; assay: Efficacy in Xenograft Tumor Models, A2780; type: in vivo; settings: nude mice, 4-day-on and 3-day-off schedule for 17 days
Experimental: The purpose of this assay is to measure reduction in tumor volume in response to test compound administration. A2780 and NCI-H1155 (NSCLC) cells are grown as described above for IVTI studies. Cells are harvested and injected subcutaneously onto the rear flank of nude mice. When tumors are established (7-21 days after implant), animals are randomized and grouped into control and test groups (7 animals/group). The test compound is formulated in 20% of CAPTISOL® and 25 mM of phosphate buffer, pH 2. Test compound and vehicle (20% of CAPTISOL® and 25 mM of phosphate buffer, pH 2 without compound) are administered by oral gavage. Tumor response is determined by tumor volume measurement (caliper) performed twice a week during the course of treatment and reported as percent of tumor volume of each treatment group divided by tumor volume of the vehicle control group. […] For example, Example 1 in H1155 tumor model, when dosed at 10 mg/kg (twice a day (BID) on a 4-day-on and 3-day-off schedule for 17 days, a T/C of 5.5 (P value<0.001 based on T-test) is achieved; when dosed at 20 mg/kg on the same schedule, a T/C of −81.1 (P value<0.001 based on T-test) is achieved. Example 2 in H1155 tumor model, when dosed at 8 mg/kg (twice a day (BID) on a 4-day-on and 3-day-off schedule for 17 days, a T/C of 5.2 (P value<0.001 based on T-test) is achieved; when dosed at 16 mg/kg on the same schedule, a T/C of −82.7 (P value<0.001 based on T-test) is achieved. Example 1 in A2780 tumor model, when dosed at 10 mg/kg (twice a day (BID) on a 4-day-on and 3-day-off schedule for 17 days, a T/C of 41.7 (P value<0.007 based on T-test) is achieved; when dosed at 20 mg/kg on the same schedule, a T/C of 2.4 (P value<0.001 based on T-test) is achieved.

[3] = system: AN3-CA; assay: Cell Proliferation Assay ±NA, AN3-CA; type: cell-based; settings: Homo sapiens, endometrium, treatment time 72 hr
Experimental: The purpose of this assay is to measure the ability of a compound to inhibit proliferation of endometrium, kidney, adrenal gland, and autonomic ganglia cancer cell lines dependent on the NAMPT-mediated NAD^+ formation in the presence or absence of NA (10 μM) in vitro. One day before the planned initiation of compound treatment portion of the assay, one vial of assay ready frozen cells is thawed, and the cells are grown overnight in the media as shown in Table 3 under 5% CO2 at 37° C. Then, the cell layer is briefly rinsed with 0.25% (w/v) Trypsin-0.038% (w/v) EDTA solution followed with the addition of 3.0 ml of Trypsin-EDTA solution. Once the cell layer is dispersed, 8.0 ml of complete growth medium (Table 3) is added and cells are aspirated by gently pipetting. The cell suspension is transferred to a centrifuge tube and centrifuged at 800-1000 rpm for 3-5 minutes. The supernatant is discarded using a vacuum pump. The cell pellet is suspended in a complete medium by gently pipetting. The cell numbers are counted and adjusted to the appropriate density (Table 3). […] The bottom of each plate is pasted with a white back seal and luminescence is recorded using a Flexstation 3 with the following settings: Luminescence and integration time of 500 ms.

IC50 [1] [nM]	Structure (SMILES)	T/C (tumor volume of treatment group divided by vehicle control group) ([2]; 8 mg/kg BID oral) [%]	T/C (tumor volume of treatment group divided by vehicle control group) ([2]; 16 mg/kg BID oral) [%]	IC50 ([3]; NA 0.0 μM, read-out: IC50 (μM) NA (0.0 μM)) [µM]	IC50 ([3]; NA 10 μM, read-out: IC50 (μM) NA (10 μM)) [µM]	T/C (tumor volume of treatment group divided by vehicle control group) ([2]; 10 mg/kg BID oral) [%]	T/C (tumor volume of treatment group divided by vehicle control group) ([2]; 20 mg/kg BID oral) [%]
352 ± 252	COCCS(=O)(=O)Nc1ccc2c(c1)CCN(C(=O)COc1cccnc1)C2 [Example 2, 2-Methoxy-N-[2-[2-(3-pyridyloxy)acetyl]-3,4-dihydro-1H-isoquinolin-6-yl]ethanesulfonamide]	40.5	1.5	–	–	–	–
389 ± 283	CC(C)(O)CS(=O)(=O)Nc1ccc2c(c1)CCN(C(=O)COc1cccnc1)C2 [Example 1, 2-Hydroxy-2-methyl-N-[2-[2-(3-pyridyloxy)acetyl]-3,4-dihydro-1H-isoquinolin-6-yl]propane-1-sulfonamide]	–	–	0.02	0.02	41.7	2.4
